Data published in ChEMBL document CHEMBL4219190, “Studies on synthesis of novel pyrido[2,3-d]pyrimidine derivatives, evaluation of their antimicrobial activity and molecular docking” (Bioorg Med Chem Lett, 2018).
The source made the active and inactive calls.

Columns and labels:
Assay type in all cases: functional
Candida albicans [1] = experiment: Antifungal activity against Candida albicans MTCC 3958 after 24 hrs by well diffusion method; details: MTCC 3958, 24 h
Candida albicans [2] = experiment: Fungicidal activity against Candida albicans MTCC 4748 incubated for 24 hrs followed by transfer of microbial suspension to Sabouraud dextrose agar plates and measured after 24 hrs post transfer; details: MTCC 4748, 24 h
Candida albicans [3] = experiment: Antifungal activity against Candida albicans MTCC 227 after 24 hrs by well diffusion method; details: MTCC 227, 24 h
Candida albicans [4] = experiment: Fungicidal activity against Candida albicans MTCC 1637 incubated for 24 hrs followed by transfer of microbial suspension to Sabouraud dextrose agar plates and measured after 24 hrs post transfer; details: MTCC 1637, 24 h
Staphylococcus aureus [5] = experiment: Antibacterial activity against Staphylococcus aureus MLS16 MTCC 2940 after 24 hrs by well diffusion method
Candida parapsilosis [6] = experiment: Antifungal activity against Candida parapsilosis MTCC 1744 after 24 hrs by well diffusion method; details: MTCC 1744, 24 h
Staphylococcus aureus [7] = experiment: Antibacterial activity against Staphylococcus aureus MTCC 96 after 24 hrs by well diffusion method
Candida albicans [8] = experiment: Antifungal activity against Candida albicans MTCC 3017 after 24 hrs by well diffusion method; details: MTCC 3017, 24 h
Pseudomonas aeruginosa = experiment: Antibacterial activity against Pseudomonas aeruginosa MTCC 2453 after 24 hrs by well diffusion method
Micrococcus luteus = experiment: Antibacterial activity against Micrococcus luteus MTCC 2470 after 24 hrs by well diffusion method
Candida albicans [9] = experiment: Antifungal activity against Candida albicans MTCC 7315 after 24 hrs by well diffusion method; details: MTCC 7315, 24 h
Bacillus subtilis = experiment: Antibacterial activity against Bacillus subtilis MTCC 121 after 24 hrs by well diffusion method
Candida albicans [10] = experiment: Antifungal activity against Candida albicans MTCC 4748 after 24 hrs by well diffusion method; details: MTCC 4748, 24 h
Candida albicans [11] = experiment: Fungicidal activity against Candida albicans MTCC 854 incubated for 24 hrs followed by transfer of microbial suspension to Sabouraud dextrose agar plates and measured after 24 hrs post transfer; details: MTCC 854, 24 h
Pichia sporocuriosa [12] = experiment: Antifungal activity against Issatchenkia hanoiensis MTCC 4755 after 24 hrs by well diffusion method; details: MTCC 4755, 24 h
Candida parapsilosis [13] = experiment: Fungicidal activity against Candida parapsilosis MTCC 1744 incubated for 24 hrs followed by transfer of microbial suspension to Sabouraud dextrose agar plates and measured after 24 hrs post transfer; details: Lodderomyces parapsilosis, MTCC 1744, 24 h
Nakaseomyces glabratus [14] = experiment: Antifungal activity against Candida glabrata MTCC 3019 after 24 hrs by well diffusion method; details: MTCC 3019, 24 h
Candida albicans [15] = experiment: Fungicidal activity against Candida albicans MTCC 3018 incubated for 24 hrs followed by transfer of microbial suspension to Sabouraud dextrose agar plates and measured after 24 hrs post transfer; details: MTCC 3018, 24 h
Pichia kudriavzevii [16] = experiment: Fungicidal activity against Candida krusei MTCC 3020 incubated for 24 hrs followed by transfer of microbial suspension to Sabouraud dextrose agar plates and measured after 24 hrs post transfer
Pichia sporocuriosa [17] = experiment: Fungicidal activity against Issatchenkia hanoiensis MTCC 4755 incubated for 24 hrs followed by transfer of microbial suspension to Sabouraud dextrose agar plates and measured after 24 hrs post transfer; details: MTCC 4755, 24 h
Candida albicans [18] = experiment: Fungicidal activity against Candida albicans MTCC 227 incubated for 24 hrs followed by transfer of microbial suspension to Sabouraud dextrose agar plates and measured after 24 hrs post transfer; details: MTCC 227, 24 h
Candida albicans [19] = experiment: Antifungal activity against Candida albicans MTCC 854 after 24 hrs by well diffusion method; details: MTCC 854, 24 h
[Candida] aaseri [20] = Antifungal activity against Candida aaseri MTCC 1962 after 24 hrs by well diffusion method; details: Yamadazyma aaseri, MTCC 1962, 24 h
[Candida] aaseri [21] = Fungicidal activity against Candida aaseri MTCC 1962 incubated for 24 hrs followed by transfer of microbial suspension to Sabouraud dextrose agar plates and measured after 24 hrs post transfer; details: Yamadazyma aaseri, MTCC 1962, 24 h
Raoultella planticola = experiment: Antibacterial activity against Klebsiella planticola MTCC 530 after 24 hrs by well diffusion method
Candida albicans [22] = experiment: Fungicidal activity against Candida albicans MTCC 3017 incubated for 24 hrs followed by transfer of microbial suspension to Sabouraud dextrose agar plates and measured after 24 hrs post transfer; details: MTCC 3017, 24 h
Candida albicans [23] = experiment: Antifungal activity against Candida albicans MTCC 3018 after 24 hrs by well diffusion method; details: MTCC 3018, 24 h
Nakaseomyces glabratus [24] = experiment: Fungicidal activity against Candida glabrata MTCC 3019 incubated for 24 hrs followed by transfer of microbial suspension to Sabouraud dextrose agar plates and measured after 24 hrs post transfer; details: MTCC 3019, 24 h
Candida albicans [25] = experiment: Antifungal activity against Candida albicans MTCC 183 after 24 hrs by well diffusion method; details: MTCC 183, 24 h
Pichia kudriavzevii [26] = experiment: Antifungal activity against Candida krusei MTCC 3020 after 24 hrs by well diffusion method
Candida albicans [27] = experiment: Fungicidal activity against Candida albicans MTCC 3958 incubated for 24 hrs followed by transfer of microbial suspension to Sabouraud dextrose agar plates and measured after 24 hrs post transfer; details: MTCC 3958, 24 h
Candida albicans [28] = experiment: Fungicidal activity against Candida albicans MTCC 183 incubated for 24 hrs followed by transfer of microbial suspension to Sabouraud dextrose agar plates and measured after 24 hrs post transfer; details: MTCC 183, 24 h
Candida albicans [29] = experiment: Antifungal activity against Candida albicans MTCC 1637 after 24 hrs by well diffusion method; details: MTCC 1637, 24 h
Candida albicans [30] = experiment: Fungicidal activity against Candida albicans MTCC 7315 incubated for 24 hrs followed by transfer of microbial suspension to Sabouraud dextrose agar plates and measured after 24 hrs post transfer; details: MTCC 7315, 24 h
Escherichia coli = experiment: Antibacterial activity against Escherichia coli MTCC 739 after 24 hrs by well diffusion method

O=C(c1nc(-c2ccccc2)c2c(C(F)(F)F)cc(-c3ccccc3)nc2n1)N1CCCC1
7.8 µg/mL: MIC (Candida albicans [8]) | MIC (Candida albicans [19]) | MIC ([Candida] aaseri [20]) | MIC (Candida albicans [25]) | MIC (Candida albicans [29])
15.6 µg/mL: MIC (Candida albicans [3]) | MFC (Candida albicans [4]) | MIC (Candida parapsilosis [6]) | MIC (Candida albicans [9]) | MFC (Candida albicans [11]) | MFC (Candida parapsilosis [13]) | MFC ([Candida] aaseri [21]) | MFC (Candida albicans [22]) | MFC (Candida albicans [28])
62.5 µg/mL: MFC (Candida albicans [2]) | MIC (Candida albicans [10]) | MFC (Candida albicans [15]) | MFC (Pichia sporocuriosa [17]) | MFC (Candida albicans [27])
inactive: MIC (Staphylococcus aureus [5]) | MIC (Staphylococcus aureus [7]) | MIC (Pseudomonas aeruginosa) | MIC (Micrococcus luteus) | MIC (Bacillus subtilis) | MFC (Pichia kudriavzevii [16]) | MIC (Raoultella planticola) | MIC (Pichia kudriavzevii [26]) | MIC (Escherichia coli)
31.2 µg/mL: MIC (Candida albicans [1]) | MIC (Pichia sporocuriosa [12]) | MIC (Nakaseomyces glabratus [14]) | MFC (Candida albicans [18]) | MIC (Candida albicans [23]) | MFC (Nakaseomyces glabratus [24]) | MFC (Candida albicans [30])
